Test results as given in publication PMC8469395 (Pharmaceutics, 2021).
Read-outs that look alike come from different tables or passages of the source.

How the values were obtained:
TR-iBRB2 cells [1] = assay: Effect of compounds on [3H]amantadine uptake by TR-iBRB2 cells; assay type: in vitro ADME, rat; conditions: for activity at 200 µM / activity at 2500 µM: Rattus norvegicus, 0.05 h, read-out: [3H]amantadine uptake, % of Control, TR-iBRB2
Description: (§1) In 10% fetal bovine serum (FBS; Merck, Darmstadt, Germany)-containing Dulbecco’s modified Eagle’s medium (DMEM; Nissui Pharmaceutical, Tokyo, Japan) with 20 mM NaHCO3, 0.19 mM benzylpenicillin potassium, and 0.14 mM streptomycin sulfate, TR-iBRB2 cells (passage number 32–60) were cultured according to previous reports. As described previously, RPE-J cells (passage number 79-92) were cultured in DMEM with 4% FBS, 20 mM NaHCO3, and 0.1 mM non-essential amino acid (FUJIFILM Wako Pure Chemical, Osaka, Japan) containing 0.16 mM benzylpenicillin potassium and 0.17 mM streptomycin sulfate. In accordance with established protocols for the uptake study, the cells were seeded at a density of 1.0 × 10^5 cells/well onto a collagen I-coated 24-well plate (BioCoat™ Collagen I Cellware, Corning, Corning, NY, USA) and cultured for 2 days, at 33 °C, under 5% CO2/air. Referring to the previous reports, we started the uptake reaction, and the details of the procedure are included in the Supplemental Materials.
(§2) Cell/medium ratio = [^3H]compound (dpm) per cell protein (mg)/[^3H]compound (dpm) per medium (µL)(2) […]
(§3) 7.4) three times at 37°C.
(§4) and KHCO3, respectively. Cl--free ECF buffer was prepared by replacing equimolar
(§5) protein assay kit (Bio-Rad, Hercules, CA, USA).

[2] = cited from earlier work
TR-iBRB2 cells [3] = assay: Amantadine uptake by TR-iBRB2 cells (inner BRB model); assay type: in vitro ADME, rat
Description: as §1
(§6) Cell/medium ratio = [^3H]compound (dpm) per cell protein (mg)/[^3H]compound (dpm) per medium (µL)(2)
(§7) Kinetic parameters for cell uptake, such as the maximal uptake rate (Vmax), Michaelis–Menten constant (Km), and non-saturable uptake clearance (Kd), were obtained by using the nonlinear least-squares regression analysis program (MULTI) with Equations (3)–(5), where the uptake rate of the test compound and its concentration were V and S, respectively. V = (Vmax × S)/(Km + S)(3) V = (Vmax × S)/(Km + S) + Kd × S(4) V = (Vmax1 × S)/(Km1 + S) + (Vmax2 × S)/(Km2 + S)(5) […]
as §3, §4, §5

[4] = system: retina (blood–retinal barrier); assay: In vivo blood-to-retina transport, retinal uptake index (RUI) method; conditions: co-administration of 50 mM compound, rat
[5] = pharmacotherapy for Parkinson's disease; cited from earlier work
RPE-J cells [6] = assay: Amantadine uptake by RPE-J cells (outer BRB model); assay type: in vitro ADME, rat; conditions: for Km1 (high-affinity process): 1.67 µM−10 mM
Description: as §1, §6, §7, §3, §4, §5

RPE-J cells [7] = assay: Effect of compounds on [3H]amantadine uptake by RPE-J cells; assay type: in vitro ADME, rat; conditions: for activity at 200 µM / activity at 1000 µM / activity at 2500 µM: Rattus norvegicus, 0.05 h, read-out: [3H]amantadine uptake, % of Control, RPE-J; for [3H]amantadine uptake, % of Control, RPE-J: [3H]amantadine 1.67 µM, 3 min, 37 °C
Description: as §1, §2, §3, §4, §5

[8] = set-up: method as in ref 31 = [31]; 31. Grabowski T. Gumulka S.W. Borucka B. Raszewski W. Analysis relationships between pharmacokinetic parameters in silico/in vivo of selected antiviral drugs based on structural analysis Adv. Clin. Ex; conditions: cited from earlier work
NMDA receptors = molecular target: NMDA receptors; set-up: method as in ref 47 (Parsons et al.); conditions: ref 47 (Parsons et al.); cited from earlier work
TR-iBRB2 cells [9] = conditions: read-out: Km for uptake by TR-iBRB2 cells; cited from earlier work
[10] = compound 0.2 mM, [3H]amantadine 1.67 µM, 3 min, 37 °C
[11] = pretreatment 30 mM NH4Cl, 15 s, 37 °C

CC(=O)Nc1nnc(S(N)(=O)=O)s1 [Acetazolamide]
[3H]amantadine uptake, % of Control, TR-iBRB2 (TR-iBRB2 cells [1]; [10]): 90.9 ± 3.8 % of Control

NC12CC3CC(CC(C3)C1)C2 [Amantadine]
pKa [2]: 10.1 | activity at 200 µM (TR-iBRB2 cells [1]): 34.1 ± 4.1% | reduction of uptake at extracellular pH 6.4 (TR-iBRB2 cells [3]): 64% | reduction of uptake at 4 °C (TR-iBRB2 cells [3]; 4 °C vs 37 °C): 86% | Km (TR-iBRB2 cells [3]; 37 °C, 3 min, 1.67 to 1000 µM): 79.4 µM | Vmax (TR-iBRB2 cells [3]; 37 °C, 3 min, 1.67 to 1000 µM): 1.36 ± 0.38 nmol/(min·mg protein) | reduction of uptake in Cl−-free buffer (TR-iBRB2 cells [3]; 3 min, 37 °C): 38% | initial uptake rate (TR-iBRB2 cells [3]; [3H]amantadine 1.67 µM, 37 °C): 14.0 ± 4.1 µL/(min·mg protein) | decrease of uptake at alkalized intracellular pH (TR-iBRB2 cells [3]; acute 30 mM NH4Cl, 15 s, 37 °C): 80% | increase of uptake at acidified intracellular pH (TR-iBRB2 cells [3]; [11]): 90% | decrease of [3H]amantadine RUI [4]: 44% | plasma concentration range [5]: 600 to 29000 nM | Km2 (low-affinity process) (RPE-J cells [6]): 9830 ± 1620 µM | Vmax1 (high-affinity process) (RPE-J cells [6]): 0.914 ± 0.510 nmol/(min·mg protein) | Vmax2 (low-affinity process) (RPE-J cells [6]): 85.3 ± 11.4 nmol/(min·mg protein) | contribution of the high-affinity process (RPE-J cells [6]): 54% | contribution of the low-affinity process (RPE-J cells [6]): 46% | decrease of uptake at extracellular pH 6.4 (RPE-J cells [6]): 32% | increase of uptake at extracellular pH 8.4 (RPE-J cells [6]): 25% | Km1 (high-affinity process) (RPE-J cells [6]): 90.5 ± 49.6 µM | Km1 (high-affinity process) (RPE-J cells [6]; listed as amantadine): 90.5 µM | reduction of uptake at 4 °C (RPE-J cells [6]; 4 °C vs 37 °C): 87% | initial uptake rate (RPE-J cells [6]; [3H]amantadine 1.67 µM, 37 °C): 15.9 ± 0.3 µL/(min·mg protein) | decrease of uptake at alkalized intracellular pH (RPE-J cells [6]; acute 30 mM NH4Cl, 15 s, 37 °C): 78% | Km2 (low-affinity process) (RPE-J cells [6]; listed as amantadine): 9830 µM | increase of uptake at acidified intracellular pH (RPE-J cells [6]; [11]): 18% | activity at 200 µM (RPE-J cells [7]): 89.9 ± 5.6% | activity at 1000 µM (RPE-J cells [7]): 21.3 ± 3.1% | log D [8]: 0.176 | IC50 (NMDA receptors): 20 µM

C[N+](C)(C)CCO [Choline]
activity at 200 µM (TR-iBRB2 cells [1]): 101 ± 8% | activity at 200 µM (RPE-J cells [7]): 124 ± 39%

CN/C(=N/CCSCc1nc[nH]c1C)NC#N [Cimetidine]
[3H]amantadine uptake, % of Control, TR-iBRB2 (TR-iBRB2 cells [1]): 97.6 ± 24.7 % of Control | [3H]amantadine uptake, % of Control, RPE-J (RPE-J cells [7]; compound 0.2 mM): 106 ± 5 % of Control

Clc1cccc(Cl)c1N=C1NCCN1 [Clonidine]
activity at 200 µM (TR-iBRB2 cells [1]): 42.1 ± 12.1% | reduction of [3H]amantadine uptake by TR-iBRB2 cells (TR-iBRB2 cells [1]; compound 0.2 mM): more than 58% | Km (TR-iBRB2 cells [9]): 286 µM | activity at 200 µM (RPE-J cells [7]): 71.6 ± 4.7% | activity at 1000 µM (RPE-J cells [7]): 30.8 ± 4%

CCN1/C(=C/c2ccc3ccccc3[n+]2CC)C=Cc2ccccc21.[I-] [Decynium-22]
[3H]amantadine uptake, % of Control, TR-iBRB2 (TR-iBRB2 cells [1]; [10]): 106 ± 31 % of Control | [3H]amantadine uptake, % of Control, RPE-J (RPE-J cells [7]; compound 0.2 mM): 86.7 ± 41.9 % of Control | [3H]amantadine uptake, % of Control, RPE-J (RPE-J cells [7]; compound 0.5 mM): 136 ± 8 % of Control

CNCCCN1c2ccccc2CCc2ccccc21 [Desipramine]
[3H]amantadine uptake, % of Control, TR-iBRB2 (TR-iBRB2 cells [1]; [10]): 7.05 ± 0.57 % of Control | [3H]amantadine uptake, % of Control, RPE-J (RPE-J cells [7]; compound 0.2 mM): 10.7 ± 5.6 % of Control

N#CC(C#N)=NNc1ccc(OC(F)(F)F)cc1 [FCCP, carbonyl cyanide-p-trifluoromethoxyphenylhydrazone]
decrease of [3H]amantadine uptake (TR-iBRB2 cells [1]): 50%

O=C(O)[C@H](O)[C@@H](O)[C@H](O)[C@H](O)CO [Gluconate]
[3H]amantadine uptake, % of Control, TR-iBRB2 (TR-iBRB2 cells [1]; [10]): 91.7 ± 21.7 % of Control | [3H]amantadine uptake, % of Control, RPE-J (RPE-J cells [7]; compound 0.2 mM): 86.2 ± 23.4 % of Control

NCC(=O)O [Glycine]
[3H]amantadine uptake, % of Control, TR-iBRB2 (TR-iBRB2 cells [1]; compound 2.5 mM, [3H]amantadine 1.67 µM, 3 min, 37 °C): 102 ± 4 % of Control | [3H]amantadine uptake, % of Control, RPE-J (RPE-J cells [7]; compound 2.5 mM): 116 ± 13 % of Control

CN(C)CCCN1c2ccccc2CCc2ccccc21 [Imipramine]
activity at 200 µM (TR-iBRB2 cells [1]): 8.37 ± 1.43% | activity at 200 µM (RPE-J cells [7]): 16.9 ± 5.2%

N=C(N)NCCC[C@H](N)C(=O)O [L-Arginine]
activity at 2500 µM (TR-iBRB2 cells [1]): 127 ± 15% | activity at 2500 µM (RPE-J cells [7]): 150 ± 38%

N[C@@H](CC(=O)O)C(=O)O [L-Aspartic acid]
activity at 2500 µM (TR-iBRB2 cells [1]): 101 ± 23% | activity at 2500 µM (RPE-J cells [7]): 79.5 ± 12.7%
